Patent US20070172439A1, “Method of chemiluminescence-utilizing makeup and beautification, luminant for skin irradiation beautification and makeup/beautification equipment” (priority 2004, published 2007)

Experiments:
mouse melanoma(B16 cell) [1] = experiment: B16 cell proliferation rate (Abs 260 nm); format: cell-based; settings: VC 1 mM addition (positive control); control = 100
From the text: (§1) • Cell: mouse melanoma(B16 cell) • Chemical luminescentbody: Normal type • Blue fluorescent light, orange fluorescent light, red fluorescent light, green fluorescent light, and yellow fluorescent light • High intensity type • Orange fluorescent light, red fluorescent light, and green fluorescent light (Produced by OmniGlow Japan Co., Ltd.) Assay: • 1. Seeded B16 cell to 24 well plate with […], MEM·10% S(+)·glucosamine culture medium. n=8 • 2. After culturing 5 days, it was transferred to MEM·10% S(+)·theophyline culture medium. • 3. Exposed to fluorescent light by placing the chemical luminescent body in contact with the plate for 4 hr. in the case of normal type and for 30 min. in the case of high intensity type. The control was under no exposure to fluorescent light and the positive control was in the 1 mMVC (Ascorbic acid) addition system. • 4. The cell was recovered three days after the start of exposure, dissolved into 0.1% DS normal saline solution, and then the optical density was measured at 260 nm (index of the amount of cell) and at 475 nm (index of the amount of melanin), and then the cell proliferation rate and the melanin synthesis rate per unit cell was calculated. • The B16 cell proliferation rate is shown in Table 4 and FIG. 7, and the melanin synthesis rate per unit cell is shown in Table 5 and FIG. 8. […]

mouse melanoma(B16 cell) [2] = experiment: Melanin synthesis rate per unit cell (Abs 475/260 nm); format: cell-based; settings: VC 1 mM addition (positive control), control = 100
From the text: as §1

[3] = tested on: Normal human skin fibroblast (NHF); experiment: Cell proliferation, MTT assay (Example 1); format: cell-based; settings: fluorescence 4 hrs, 100 mM PMG as positive control, vs untreated control
Description: The test was performed in the procedure described below: • 1. Cell: Normal human skin fibroblast (NHF) • 2. Chemical fluorescent body: CYALUME Light shape blue, orange and red Seller: OmniGlow Japan Co., Ltd. • 3. Assay: • (1) Seeded NHF to 24 well plate with 2.0×10^4 cells/well, DMEM·10% S(+) • (2) After confluent state is observed by culturing 5 days, it was transferred to non-color and non-blood-serum DMEM. • (3) Exposed to fluorescence (4 hrs.). 100 mM PMG additive system was used as the positive control. • (4) Observed the appearance of the cell (×40) • (5) The quantitative measurement of cell proliferation was made by using MTT assay and by means of colorimetric test with wavelengths of 540 nm for measurement and 655 nm for control. The cell proliferation rate was calculated by using the formula described below, setting the untreated control as 100%. • 4. Calculation formula Cell proliferation rate=([Sample addition OD(540 nm)]−[Sample addition OD(655 nm)])/([Control OD(540 nm)]−[Control OD(655 nm)])×100

Fibroblast(NHF) [4] = experiment: Fibroblast proliferation, MTT assay (Example 5); format: cell-based, human; settings: PMG 100 mM (positive control); 24 hours
Description: (§2) • Cell:Fibroblast(NHF) • Chemical luminescence body (produced by OmniGlow Japan Co., Ltd.) • Normal type red (red fluorescent light) • High intensity orange (orange fluorescent light) • Collagen measurement kit: The amount of propeptide at the end of I type collagen C (PIP) is measured by Takara PIP kit. Assay: • (1)NHF is seeded at 2.0×10^4 to 24 well plate with DMEM·10% S(+). • (2) After confluent state is observed by culturing 5 days, it was transferred to non-color and non-blood-serum DMEM. • (3) Fluorescent light is allowed to irradiate (30 min.) by placing the chemical luminescent body in direct contact with 24 well plate. 100 mM PMG(phosphoric acid-L-magnesium ascorbate) addition system was prepared as the positive control. • (4) After 24 hours from the start of irradiation, the upper layer of the medium is recovered. • The amount of propeptide at the end of I type collagen C (PIP) is measured by Tatara PIP kit and then the calorimetric determination of cell proliferation is made by using MTT assay at observation wavelength of 540 nm and at reference wavelength of 655 nm. The cell proliferation rate is calculated by the formula below by setting the control of non-treated group as 100%. […]

Fibroblast(NHF) [5] = experiment: Collagen synthesis rate, PIP kit per MTT (Example 5); format: cell-based, human; settings: PMG 100 mM (positive control); per unit cell; control = 100
Description: as §2

With O=C1O[C@H]([C@@H](O)CO)C(O)=C1O [VC, Ascorbic acid] as the compound, how does the “B16 cell proliferation rate (%)” value (mouse melanoma(B16 cell) [1]) read?
Its value is 21.42%.

And the “Melanin synthesis rate (%)” value (mouse melanoma(B16 cell) [2])?
Its value is 65.28%.

For “phosphoric acid-L-magnesium ascorbate [PMG]”, which cell proliferation [3] is on record?
The cell proliferation was “significantly promoted”.

What about the “Fibroblast proliferation rate (%)” value (Fibroblast(NHF) [4]) of the same compound?
The value was 138.2%.

What about the “Collagen synthesis rate (%)” value (Fibroblast(NHF) [5]) of the same compound?
The value was 127.6%.
